Non-standard residues stand in square brackets, D forms with d. Residues, ends and D or L forms follow the SMILES beside them. pGlu = O=C1CC[C@@H](C(=O)O)N1; βAla = NCCC(=O)O
What was measured:
[1] = system: noradrenalin (NA) in the entire brain of male mice; assay: Lowering of noradrenalin (NA) in entire brain of mice after FLA 63 (FLA 63-induced NA-lowering); format: in vivo, mouse
Experimental: The action of antidepressants can be explained by the fact that such substances normalise the activity of noradrenergic neurones in the brain, this activity being altered in the case of depressive illness. […] If a test substance has NA-liberating action, then this manifests itself in an intensification of the FLA63-induced NA-lowering.
In order to determine the antidepressant action of the compound of formula I hereinbefore, the lowering of NA in the entire brain of male mice was determined 90 minutes after the i.p. injection of FLA 63 (5 mg/kg).

mice = assay: Locomotor activity in mice; format: in vivo, mouse
[2] = Toxicity (LD 10, LD 50) in the mouse; format: in vivo; settings: in vivo, iv
mouse = assay: Toxicity (LD 10, LD 50) in the mouse; format: in vivo; settings: p.o.

NC(=O)CCNC(=O)[C@@H]1CCCN1C(=O)[C@H](Cc1c[nH]cn1)NC(=O)[C@@H]1CCC(=O)N1 [compound of formula I, L-pyroglutamyl-L-histidyl-L-prolyl-β-alaninamide] ([pGlu]HP[βAla]-NH2)
Noradrenalin (%) ([1]; FLA 63 5 mg/kg i.p. plus test substance injected simultaneously, 90 minutes, entire brain, male mice, FLA 63 alone = 100%): 82.2 ± 2.6%
liberation of NA in the brain of mice (in words) ([1]; mice): increases the liberation of NA
FLA 63-induced NA-lowering (in words) ([1]; simultaneous injection with FLA 63 (5 mg/kg i.p.), 90 minutes, male mice): significant acceleration of the FLA 63-induced NA-lowering
locomotor activity in mice (in words) (mice): increase in the locomotor activity
LD50 [2]: > 4000 mg/kg
LD 10 (mouse): above 8 g/kg

— US4066635A, “L-Pyroglutamyl-L-histidyl-L-prolyl-beta-alaninamide and salts” (Hoffmann-La Roche Inc., priority 1976, dated 1978)
